We go through 2 molecules from US12238268B2, “Imaging systems and methods” (priority 2012, dated 2025).

Series [1] deals with ABIR (Homo sapiens, UniProt P05106+P06756). Nature of the series: ABIR binding affinity. The note with it: relative to reference cypate-labeled RGD peptide. From the text: (§1) An example of a tumor-targeted molecular probe is LS-301, which has the structure, Cypate-cyclo (D-Cys-Gly-Arg-Asp-Ser-Pro-Cys)-Lys-OH. The spectral properties of LS-301 are suitable for NIR imaging applications (e.g., excitation/emission 790/810 nm in 20% DMSO solution; fluorescence quantum yield (ψ) 0.1 referenced to ICG). […] In addition to conferring tumor selectivity on LS-301, the unnatural D-cysteine on the peptide moiety confers higher stability because of its resistance to degradation by proteases. This biological stability in serum allows initial imaging and potential follow-up surgery to be conducted within 48 hours before subsequent hydrolysis of the probe through L-amino acid residues.
Chain of ABIR (P06756 31-889 limits assumed): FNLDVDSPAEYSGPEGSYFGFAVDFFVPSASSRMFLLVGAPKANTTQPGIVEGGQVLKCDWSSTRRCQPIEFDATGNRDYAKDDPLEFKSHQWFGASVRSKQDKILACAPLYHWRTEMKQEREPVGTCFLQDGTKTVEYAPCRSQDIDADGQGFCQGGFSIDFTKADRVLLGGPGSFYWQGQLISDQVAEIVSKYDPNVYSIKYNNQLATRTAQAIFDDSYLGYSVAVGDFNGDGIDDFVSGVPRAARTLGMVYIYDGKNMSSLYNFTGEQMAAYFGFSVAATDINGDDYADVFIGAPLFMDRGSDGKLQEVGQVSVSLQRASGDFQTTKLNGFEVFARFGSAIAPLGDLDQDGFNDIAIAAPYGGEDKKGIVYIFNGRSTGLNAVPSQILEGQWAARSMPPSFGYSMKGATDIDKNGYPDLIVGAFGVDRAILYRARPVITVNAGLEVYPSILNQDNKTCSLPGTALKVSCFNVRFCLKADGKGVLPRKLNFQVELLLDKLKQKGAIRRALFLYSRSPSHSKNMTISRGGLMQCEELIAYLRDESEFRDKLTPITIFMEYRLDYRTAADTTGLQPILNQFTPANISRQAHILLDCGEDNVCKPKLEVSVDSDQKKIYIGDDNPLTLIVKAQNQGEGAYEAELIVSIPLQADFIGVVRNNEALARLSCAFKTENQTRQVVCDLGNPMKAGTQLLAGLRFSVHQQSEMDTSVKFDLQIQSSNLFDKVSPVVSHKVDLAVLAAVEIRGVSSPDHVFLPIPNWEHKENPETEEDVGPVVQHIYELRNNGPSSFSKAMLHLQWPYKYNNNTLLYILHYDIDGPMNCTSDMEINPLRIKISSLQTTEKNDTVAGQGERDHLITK
Chain of ABIR (P06756 891-1048 partner limits assumed): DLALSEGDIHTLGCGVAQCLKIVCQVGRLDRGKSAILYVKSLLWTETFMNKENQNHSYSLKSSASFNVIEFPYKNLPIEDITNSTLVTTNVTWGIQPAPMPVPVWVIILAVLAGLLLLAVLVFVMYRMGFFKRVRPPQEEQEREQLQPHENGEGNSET
Chain of ABIR (P05106 27-788): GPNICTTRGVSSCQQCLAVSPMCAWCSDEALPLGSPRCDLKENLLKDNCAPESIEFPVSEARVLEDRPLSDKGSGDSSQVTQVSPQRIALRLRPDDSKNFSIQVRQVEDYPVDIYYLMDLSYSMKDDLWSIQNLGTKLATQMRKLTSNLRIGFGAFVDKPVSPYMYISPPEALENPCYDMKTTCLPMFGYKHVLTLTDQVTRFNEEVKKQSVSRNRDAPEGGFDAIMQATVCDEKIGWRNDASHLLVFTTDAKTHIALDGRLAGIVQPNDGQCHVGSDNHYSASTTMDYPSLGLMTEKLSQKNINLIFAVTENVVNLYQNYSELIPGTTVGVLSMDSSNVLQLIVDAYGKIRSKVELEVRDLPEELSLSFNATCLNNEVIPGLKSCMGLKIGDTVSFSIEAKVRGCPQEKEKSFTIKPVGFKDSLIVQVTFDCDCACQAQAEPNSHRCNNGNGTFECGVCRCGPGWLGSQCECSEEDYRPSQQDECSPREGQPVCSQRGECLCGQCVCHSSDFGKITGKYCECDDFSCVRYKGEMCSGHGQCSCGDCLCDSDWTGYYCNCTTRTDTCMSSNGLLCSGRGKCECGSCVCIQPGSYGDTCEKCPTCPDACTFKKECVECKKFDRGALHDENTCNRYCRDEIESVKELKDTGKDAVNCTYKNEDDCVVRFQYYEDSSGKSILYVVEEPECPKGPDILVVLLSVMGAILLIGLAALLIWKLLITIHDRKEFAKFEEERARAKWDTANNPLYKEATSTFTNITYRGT

A short description of series [2]: Biological stability in serum. It is filed as in vitro ADME. The note with it: hydrolysis through L-amino acid residues.
From the text: as §1

Series [3] deals with liver tumors. Nature of the series: Goggle-aided fluorescence imaging of liver tumors, mice. In kind it is in vivo. The note with it: goggle device 102. The method, then: (§2) In another example, a multimodal detection technique was implemented in which goggle-aided fluorescence imaging (e.g., using goggle device 102 (shown in FIG. 1) and indocyanine green dye) was combined with ultrasound imaging and standard histology. Specifically, fluorescence imaging was used to detect liver tumors in mice and to perform liver resections on the tumors. […] Further, liver resection was performed on a rabbit using ultrasound, fluorescence imaging, and standard histology. […] The excised tissues were later examined by histopathology, and it was confirmed that the tumors were cancerous.

The test system of series [4] is tumors. Description: Goggle-aided fluorescence imaging and liver resection, rabbit. In kind it is in vivo. The note with it: fluorescence goggle system 100, confirmed by ultrasound and histopathology. The method, then: as §2
In series [5] the test system is hepatocellular carcinoma (HCC). Nature of the series: Goggle-aided fluorescence imaging of hepatocellular carcinoma in patients. It is filed as in vivo. The note with it: human patients. An excerpt:
In another example, goggle device 102 (shown in FIG. 1) and indocyanine green dye were used to image hepatocellular carcinoma (HCC) in human patients. Both intravenous and transarterial hepatic (TAH) delivery of indocyanine green dye were used. […] Histologic validation was used to confirm HCC in the patients.

Positions of bridges follow the written chain, without caps; N, C: chain ends. Non-standard residues stand in square brackets, D forms with d. Residues, ends and D or L forms follow the SMILES beside them. *: point of attachment. X1 = CC1(C)C(/C=C/C=C/C=C/C=C2/N(CCC(=O)*)c3ccc4ccccc4c3C2(C)C)=[N+](CCC(=O)[O-])c2ccc3ccccc3c21

In the case of `CC1(C)C(/C=C/C=C/C=C/C=C2/N(CCC(=O)N[C@@H]3CSSC[C@@H](C(=O)N[C@@H](CCCCN)C(=O)O)NC(=O)[C@@H]4CCCN4C(=O)[C@H](CO)NC(=O)[C@H](CC(=O)O)NC(=O)[C@H](CCCNC(=N)N)NC(=O)CNC3=O)c3ccc4ccccc4c3C2(C)C)=[N+](CCC(=O)[O-])c2ccc3ccccc3c21` [LS-301, Cypate-cyclo (D-Cys-Gly-Arg-Asp-Ser-Pro-Cys)-Lys-OH] (X1-[dC]GRDSPCK-OH; disulfide 1-7), the Ki in series [1] was 0.0262 ± 0.0004 µM. For the same molecule, the “biological stability in serum: time for imaging and follow-up surgery before hydrolysis of the probe” value in series [2] was at most 48 hours.
Turning to `CC1(C)C(/C=C/C=C/C=C/C=C2\N(CCCCS(=O)(=O)O)c3ccc4ccccc4c3C2(C)C)=[N+](CCCCS(=O)(=O)[O-])c2ccc3ccccc3c21` [indocyanine green dye, indocyanine green], the “detection of liver tumors by fluorescence imaging” value in series [3] is reported as “In addition to single tumors, scattered satellite lesions were also detected”. Besides, the “observation of tumors by fluorescence imaging” value in series [4] was “observed in real-time”. Besides, the “HCC-to-liver fluorescence contrast, TAH delivery instead of intravenous delivery” value in series [5] (goggle device 102) is listed as “significantly higher”. Further, the “detection of HCC tumors by fluorescence imaging” value in series [5] (intravenous and transarterial hepatic (TAH) delivery) was “Primary tumors and satellite tumors were both detected”.

In general, Ki refers to a dissociation constant, usually derived from enzyme kinetics or from competition with a known ligand.
